This is an account of results in patent US20210345613A1, “HERBICIDAL PYRIMIDINE COMPOUNDS” (BASF SE, priority 2016, published 2021).

Holding throughout (type): in vivo
The test system of test [1] is Setaria viridis. The experiment in a line: greenhouse herbicidal test, post-emergence treatment. The conditions noted are these: post-emergence method, scale from 0 to 100, test period 2 to 4 weeks. The text has this:
(§1) The seeds of the test plants were sown separately for each species. For the post-emergence treatment, the test plants were first grown to a height of 3 to 15 cm, depending on the plant habit, and only then treated with the active ingredients which had been suspended or emulsified in water. For this purpose, the test plants were either sown directly and grown in the same containers, or they were first grown separately as seedlings and transplanted into the test containers a few days prior to treatment. Depending on the species, the plants were kept at 10-25° C. or 20-35° C., respectively. The test period extended over 2 to 4 weeks. During this time, the plants were tended, and their response to the individual treatments was evaluated. Evaluation was carried out using a scale from 0 to 100. 100 means no emergence of the plants, or complete destruction of at least the aerial moieties, and 0 means no damage, or normal course of growth. A good herbicidal activity is given at values of at least 70 and a very good herbicidal activity is given at values of at least 85. The plants used in the greenhouse experiments were of the following species: [table]

Test [2] has as its system Apera spica-venti. The test can be described thus: greenhouse herbicidal test, pre-emergence treatment. The following applies: pre-emergence method, application rate 2000 g/ha, scale from 0 to 100, test period 2 to 4 weeks. The text has this: (§2) The seeds of the test plants were sown separately for each species. For the pre-emergence treatment, the active ingredients, which had been suspended or emulsified in water, were applied directly after sowing by means of finely distributing nozzles. The containers were irrigated gently to promote germination and growth and subsequently covered with transparent plastic hoods until the plants had rooted. This cover caused uniform germination of the test plants, unless this had been impaired by the active ingredients. Depending on the species, the plants were kept at 10-25° C. or 20-35° C., respectively. The test period extended over 2 to 4 weeks. During this time, the plants were tended, and their response to the individual treatments was evaluated. Evaluation was carried out using a scale from 0 to 100. 100 means no emergence of the plants, or complete destruction of at least the aerial moieties, and 0 means no damage, or normal course of growth. A good herbicidal activity is given at values of at least 70 and a very good herbicidal activity is given at values of at least 85. The plants used in the greenhouse experiments were of the following species: [table]

Test [3] deals with Echinocloa crus-galli. The experiment in a line: greenhouse herbicidal test, post-emergence treatment. The following applies: post-emergence method, scale from 0 to 100, test period 2 to 4 weeks.
Text: as §1

For test [4], the system named is Alopecurus myosuroides. Described as above. The conditions noted are these: post-emergence method, application rate 2000 g/ha, scale from 0 to 100, test period 2 to 4 weeks.
Text: as §1

Test [5] concerns Avena fatua. The description is as above. The following applies: post-emergence method, application rate 2000 g/ha, scale from 0 to 100, test period 2 to 4 weeks.
Text: as §1

The test system of test [6] is Echinocloa crus-galli. The experiment in a line: greenhouse herbicidal test, pre-emergence treatment. The following applies: pre-emergence method, scale from 0 to 100, test period 2 to 4 weeks.
Text: as §2

With `Brc1ccsc1-c1cnc(C2CC2)nc1-c1ccco1` [Ex.6], in test [1] (application rate 1000 g/ha), the “herbicidal activity against SETVI” value was “very good (a very good herbicidal activity is given at values of at least 85)”.
Turning to `Brc1cccnc1-c1cnc(C2CC2)nc1-c1ccco1` [Ex.8], the “herbicidal activity against APESV” value in test [2] is listed as “very good (a very good herbicidal activity is given at values of at least 85)”.
As to `Fc1cccnc1-c1cnc(C2CC2)nc1-c1ccco1` [Ex.9], the “herbicidal activity against ECHCG” value in test [3] (application rate 2000 g/ha) is given as “good (A good herbicidal activity is given at values of at least 70)”.
`Brc1cccnc1-c1cnc(C2CC2)nc1-c1ccco1` [Ex.10]: the “herbicidal activity against ALOMY” value in test [4] is “good (A good herbicidal activity is given at values of at least 70)”.
On to `Fc1cccnc1-c1cnc(C2CC2)nc1-c1ccoc1` [Ex.11], for which the “herbicidal activity against ECHCG” value in test [3] (application rate 1000 g/ha) is “good (A good herbicidal activity is given at values of at least 70)”.
For `Cc1occc1-c1nc(C2CC2)ncc1-c1ncccc1Br` [Ex.12], in test [4], the “herbicidal activity against ALOMY” value is “good (A good herbicidal activity is given at values of at least 70)”. The “herbicidal activity against ECHCG” value in test [3] (application rate 2000 g/ha) was “good (A good herbicidal activity is given at values of at least 70)”. For the same compound, the “herbicidal activity against AVEFA” value in test [5] is recorded as “good (A good herbicidal activity is given at values of at least 70)”. In addition, in test [2], the “herbicidal activity against APESV” value was “very good (a very good herbicidal activity is given at values of at least 85)”.
As for `Cc1occc1-c1nc(C2CC2)ncc1-c1ncccc1F` [Ex.13], the “herbicidal activity against ECHCG” value in test [3] (application rate 2000 g/ha) was “good (A good herbicidal activity is given at values of at least 70)”. In test [1] (application rate 2000 g/ha), the “herbicidal activity against SETVI” value is on record as “good (A good herbicidal activity is given at values of at least 70)”.
`Cc1nc(C2CC2)ncc1-c1cc(Br)sc1Br` [Ex.15]: the “herbicidal activity against ECHCG” value in test [6] (application rate 500 g/ha) was “good (A good herbicidal activity is given at values of at least 70)”.
Turning to `Cc1ccc(-c2nc(C3CC3)ncc2-c2ncccc2Br)o1` [Ex.17], the “herbicidal activity against AVEFA” value in test [5] was “very good (a very good herbicidal activity is given at values of at least 85)”. Also, the “herbicidal activity against APESV” value in test [2] is recorded as “very good (a very good herbicidal activity is given at values of at least 85)”. The “herbicidal activity against ECHCG” value in test [6] (application rate 2000 g/ha) is recorded as “very good (a very good herbicidal activity is given at values of at least 85)”.
`Cc1ccoc1-c1nc(C2CC2)ncc1-c1ncccc1Br` [Ex.18]: the “herbicidal activity against ECHCG” value in test [3] (application rate 2000 g/ha) is recorded as “good (A good herbicidal activity is given at values of at least 70)”. In addition, the “herbicidal activity against AVEFA” value in test [5] is reported as “very good (a very good herbicidal activity is given at values of at least 85)”.
As to `CCOC(=O)Cc1nc(C2CC2)ncc1-c1ncccc1Cl` [Ex.20], the “herbicidal activity against ALOMY” value in test [4] is recorded as “very good (a very good herbicidal activity is given at values of at least 85)”. Further, the “herbicidal activity against ECHCG” value in test [3] (application rate 2000 g/ha) and in test [6] (application rate 2000 g/ha) was “very good (a very good herbicidal activity is given at values of at least 85)” in each case. Besides, in test [5], the “herbicidal activity against AVEFA” value is “very good (a very good herbicidal activity is given at values of at least 85)”.
`Clc1cccnc1-c1cnc(C2CC2)nc1/C=C/c1ccco1` [Ex.25]: in test [4], the “herbicidal activity against ALOMY” value was “very good (a very good herbicidal activity is given at values of at least 85)”. Further, the “herbicidal activity against ECHCG” value in test [3] (application rate 2000 g/ha) and in test [6] (application rate 2000 g/ha) was “very good (a very good herbicidal activity is given at values of at least 85)” each time. Besides, the “herbicidal activity against SETVI” value in test [1] (application rate 2000 g/ha) is given as “very good (a very good herbicidal activity is given at values of at least 85)”. Moreover, the “herbicidal activity against APESV” value in test [2] is listed as “very good (a very good herbicidal activity is given at values of at least 85)”.
As to `OC1(Cc2nc(C3CC3)ncc2-c2ncccc2Cl)CCCC1` [Ex.26], in test [1] (application rate 2000 g/ha), the “herbicidal activity against SETVI” value is “very good (a very good herbicidal activity is given at values of at least 85)”.
As for `Clc1cccnc1-c1cnc(C2CC2)nc1-c1ccoc1` [Ex.27], the “herbicidal activity against ALOMY” value in test [4] is “very good (a very good herbicidal activity is given at values of at least 85)”. In addition, the “herbicidal activity against ECHCG” value in test [3] (application rate 2000 g/ha) and in test [6] (application rate 2000 g/ha) was “very good (a very good herbicidal activity is given at values of at least 85)” throughout. In test [5], the “herbicidal activity against AVEFA” value is on record as “very good (a very good herbicidal activity is given at values of at least 85)”. Also, the “herbicidal activity against APESV” value in test [2] was “very good (a very good herbicidal activity is given at values of at least 85)”.
As to `Clc1cccnc1-c1cnc(C2CC2)nc1C=C1CCCC1` [Ex.28], in test [4], the “herbicidal activity against ALOMY” value is “very good (a very good herbicidal activity is given at values of at least 85)”. The “herbicidal activity against ECHCG” value in test [3] (application rate 2000 g/ha) and in test [6] (application rate 2000 g/ha) was “very good (a very good herbicidal activity is given at values of at least 85)” throughout. Further, the “herbicidal activity against AVEFA” value in test [5] is “good (A good herbicidal activity is given at values of at least 70)”. For the same compound, the “herbicidal activity against APESV” value in test [2] was “very good (a very good herbicidal activity is given at values of at least 85)”.
For the compound `C/C=C/c1nc(C2CC2)ncc1-c1ncccc1Cl` [Ex.30], in test [4], the “herbicidal activity against ALOMY” value is on record as “very good (a very good herbicidal activity is given at values of at least 85)”. The entries for the “herbicidal activity against ECHCG” value in test [3] (application rate 2000 g/ha) and in test [6] (application rate 2000 g/ha) were “good (A good herbicidal activity is given at values of at least 70)” and “very good (a very good herbicidal activity is given at values of at least 85)”, respectively. In addition, the “herbicidal activity against APESV” value in test [2] was “very good (a very good herbicidal activity is given at values of at least 85)”.
On to `OC(Cc1nc(C2CC2)ncc1-c1ncccc1Cl)c1ccccc1` (stereo not drawn) [Ex.36], for which the “herbicidal activity against ALOMY” value in test [4] is “very good (a very good herbicidal activity is given at values of at least 85)”. Also, the “herbicidal activity against ECHCG” value in test [3] (application rate 2000 g/ha) was “very good (a very good herbicidal activity is given at values of at least 85)”. In addition, in test [1] (application rate 2000 g/ha), the “herbicidal activity against SETVI” value is on record as “very good (a very good herbicidal activity is given at values of at least 85)”.
In the case of `OC(Cc1nc(C2CC2)ncc1-c1ncccc1Cl)c1ccoc1` (stereo not drawn) [Ex.38], the “herbicidal activity against ECHCG” value in test [3] (application rate 2000 g/ha) and in test [6] (application rate 2000 g/ha) was “very good (a very good herbicidal activity is given at values of at least 85)” each time.
In the case of `Clc1cccnc1-c1cnc(C2CC2)nc1C=Cc1ccoc1` [Ex.39], the “herbicidal activity against ALOMY” value in test [4] is given as “good (A good herbicidal activity is given at values of at least 70)”. Besides, the “herbicidal activity against ECHCG” value in test [3] (application rate 2000 g/ha) and in test [6] (application rate 2000 g/ha) was “very good (a very good herbicidal activity is given at values of at least 85)” throughout. In test [2], the “herbicidal activity against APESV” value is on record as “very good (a very good herbicidal activity is given at values of at least 85)”.
Regarding `Clc1cccnc1-c1cnc(C2CC2)nc1C=C1CCCCC1` [Ex.42], the “herbicidal activity against ECHCG” value in test [3] (application rate 2000 g/ha) is given as “good (A good herbicidal activity is given at values of at least 70)”.
Regarding `CCC=Cc1nc(C2CC2)ncc1-c1ncccc1Cl` [Ex.45], the “herbicidal activity against ALOMY” value in test [4] is recorded as “good (A good herbicidal activity is given at values of at least 70)”. Besides, the “herbicidal activity against APESV” value in test [2] is recorded as “good (A good herbicidal activity is given at values of at least 70)”. For the same compound, the “herbicidal activity against ECHCG” value in test [6] (application rate 2000 g/ha) is “very good (a very good herbicidal activity is given at values of at least 85)”.
`Cc1nc(C)c(-c2nc(C3CC3)ncc2-c2ncccc2Cl)o1` [Ex.46]: the “herbicidal activity against ECHCG” value in test [3] (application rate 2000 g/ha) and in test [6] (application rate 2000 g/ha) was “very good (a very good herbicidal activity is given at values of at least 85)” each time. The “herbicidal activity against AVEFA” value in test [5] is on record as “very good (a very good herbicidal activity is given at values of at least 85)”. For the same compound, the “herbicidal activity against SETVI” value in test [1] (application rate 2000 g/ha) is “very good (a very good herbicidal activity is given at values of at least 85)”. Moreover, the “herbicidal activity against APESV” value in test [2] was “very good (a very good herbicidal activity is given at values of at least 85)”.
For `OC(c1ccccc1)c1nc(C2CC2)ncc1-c1ccccn1` (stereo not drawn) [Ex. 14], in test [1] (application rate 2000 g/ha), the “herbicidal activity against SETVI” value is reported as “very good (a very good herbicidal activity is given at values of at least 85)”.
